Laboratory results published in article PMC7933434, “Entropy-driven binding of gut bacterial β-glucuronidase inhibitors ameliorates irinotecan-induced toxicity” (Communications Biology, 2021).
Where “and” joins values, the source holds several entries; their conditions need not be identical. Equal values may be shown once. Entries after “also recorded” stand apart in the source; their conditions may differ.

Experiments:
[1] = biological target: BdGUS (Bifidobacterium dentium GUS) (Bifidobacterium dentium, UniProt D2Q7B1); assay: biochemical; parameters: GUS activity (hydrolysis rate of MUG) / 1/v: unit not given here
Chain of BdGUS (Bifidobacterium dentium GUS) (D2Q7B1 1-668): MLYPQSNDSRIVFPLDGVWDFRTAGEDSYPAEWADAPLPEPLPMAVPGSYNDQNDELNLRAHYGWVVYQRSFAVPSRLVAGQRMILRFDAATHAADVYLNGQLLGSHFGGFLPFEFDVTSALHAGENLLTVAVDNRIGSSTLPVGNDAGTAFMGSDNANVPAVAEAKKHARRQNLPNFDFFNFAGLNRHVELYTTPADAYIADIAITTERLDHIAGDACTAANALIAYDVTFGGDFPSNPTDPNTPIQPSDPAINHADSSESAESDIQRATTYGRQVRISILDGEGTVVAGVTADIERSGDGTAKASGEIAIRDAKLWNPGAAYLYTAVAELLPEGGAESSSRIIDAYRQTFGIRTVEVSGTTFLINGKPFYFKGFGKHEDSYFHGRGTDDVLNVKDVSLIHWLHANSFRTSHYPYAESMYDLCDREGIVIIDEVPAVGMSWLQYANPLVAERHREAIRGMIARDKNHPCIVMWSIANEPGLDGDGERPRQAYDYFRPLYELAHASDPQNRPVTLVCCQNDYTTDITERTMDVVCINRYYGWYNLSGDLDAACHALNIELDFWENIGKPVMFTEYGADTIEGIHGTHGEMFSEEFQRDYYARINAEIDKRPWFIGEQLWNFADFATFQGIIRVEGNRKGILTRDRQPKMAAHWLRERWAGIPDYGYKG

[2] = biological target: BdGUS (Bifidobacterium dentium, UniProt D2Q7B1); assay: biochemical; type: binding; conditions: BdGUS; Tris buffer (250 mM NaCl, 20 mM Tris, pH 8.0); 298 K
Chain of BdGUS (D2Q7B1 entry or part of it): as the sequence (D2Q7B1 1-668) above

[3] = biological target: LgGUS (Lactobacillus gasseri GUS) (Lactobacillus gasseri, UniProt Q9AHJ8); assay: GUS inhibition assay, hydrolysis of 4-methylumbelliferyl-β-glucuronide, LgGUS; type: biochemical; parameters: GUS activity (hydrolysis rate of MUG) / 1/v: unit not given here
Chain of LgGUS (Lactobacillus gasseri GUS) (Q9AHJ8 1-598): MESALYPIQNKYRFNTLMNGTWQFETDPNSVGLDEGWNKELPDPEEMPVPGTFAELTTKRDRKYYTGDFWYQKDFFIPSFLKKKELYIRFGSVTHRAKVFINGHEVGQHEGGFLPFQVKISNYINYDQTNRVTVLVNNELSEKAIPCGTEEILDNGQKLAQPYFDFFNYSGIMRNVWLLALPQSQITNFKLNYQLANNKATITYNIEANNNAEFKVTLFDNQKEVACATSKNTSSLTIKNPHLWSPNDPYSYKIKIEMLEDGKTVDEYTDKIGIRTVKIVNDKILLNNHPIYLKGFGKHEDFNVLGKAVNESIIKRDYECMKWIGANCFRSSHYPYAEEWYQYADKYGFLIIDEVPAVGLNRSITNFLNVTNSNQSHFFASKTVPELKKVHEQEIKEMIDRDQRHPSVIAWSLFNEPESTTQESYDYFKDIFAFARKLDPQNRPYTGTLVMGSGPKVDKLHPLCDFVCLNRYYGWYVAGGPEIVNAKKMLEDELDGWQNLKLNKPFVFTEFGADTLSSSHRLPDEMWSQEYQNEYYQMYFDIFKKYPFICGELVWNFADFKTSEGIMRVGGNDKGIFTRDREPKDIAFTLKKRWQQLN

[4] = biological target: EcGUS (Escherichia coli, UniProt P05804); assay: Isothermal titration calorimetry, EcGUS; type: binding; conditions: EcGUS
Chain of EcGUS (P05804 whole entry): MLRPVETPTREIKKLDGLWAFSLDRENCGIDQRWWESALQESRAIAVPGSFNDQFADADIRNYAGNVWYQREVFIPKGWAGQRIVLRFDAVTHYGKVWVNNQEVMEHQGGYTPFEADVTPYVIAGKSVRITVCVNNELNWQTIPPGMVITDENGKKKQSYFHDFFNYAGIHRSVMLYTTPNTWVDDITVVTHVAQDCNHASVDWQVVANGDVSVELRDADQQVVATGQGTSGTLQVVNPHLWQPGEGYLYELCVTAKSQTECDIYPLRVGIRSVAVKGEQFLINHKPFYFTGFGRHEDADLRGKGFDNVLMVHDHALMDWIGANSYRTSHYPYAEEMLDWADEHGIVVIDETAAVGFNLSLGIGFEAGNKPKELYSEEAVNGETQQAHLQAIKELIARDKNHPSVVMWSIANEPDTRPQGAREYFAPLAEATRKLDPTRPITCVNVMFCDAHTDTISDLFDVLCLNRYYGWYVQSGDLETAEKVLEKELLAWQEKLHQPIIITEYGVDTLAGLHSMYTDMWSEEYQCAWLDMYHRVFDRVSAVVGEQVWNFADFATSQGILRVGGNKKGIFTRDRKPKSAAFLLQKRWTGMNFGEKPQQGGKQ

[5] = biological target: T1, GUS activity in live E. coli cells (Escherichia coli, UniProt P05804); assay: GUS activity in live E. coli cells; type: cell-based; conditions: E. coli cells (OD600 = 1.89) treated for 30 min, then GUS activity measured
T1 construct: endogenous in cells
T1 sequence (P05804 whole entry): as above
Procedure: To examine if inhibitors 2–4 could inhibit GUS activity in vivo, E. coli cells (OD600 = 1.89) were treated with each of 2–4 for 30 min, after which GUS activity was measured. […]; 3, 18.6 nM; and 4, 3.69 nM (Supplementary Fig. 9a). […]. […] Additionally, to evaluate cell viability, E. coli cultures were treated with ampicillin (positive control), DMSO, or inhibitors 2–4 (100 μM) for 6 h.
Supplementary Figure 9 Inhibitors 2–4 sho w in hi biti on ag ai n st G US acti vity in l i ve E. co li cell s. (a) GUS activity was measured in live E. coli. Af t e r E. coli were incubated with DMSO or an inhibitor ( 2–4), GUS activity was measured using 4-methylumbelliferyl-β-glucuronide as the substrate. The release of fluorescent 4-methylumbelliferone was detected at 445 nm (excitation, 345 nm). Compared with the negative c ont rol (DMSO ), […]
[…]. (b) Colony formation assay. None of the inhibitors affected bacterial growth. As a negative control, E. coli cells were incubated with ampicillin (100 μg/mL). Results are expressed as the mean of triplicate samples ± SEM.
(1 picture or pasted object on this page, not shown here)

[6] = biological target: EcGUS (Escherichia coli GUS) (Escherichia coli, UniProt P05804); assay: biochemical
Chain of EcGUS (Escherichia coli GUS) (P05804 whole entry): as above

[7] = [Inhibitor 3] = 0.25 μM, [MUG] 0.375 mM
[8] = [Inhibitor 3] = 0.25 μM, [MUG] 0.75 mM
[9] = [Inhibitor 3] = 0.25 μM, [MUG] 1.5 mM
[10] = [Inhibitor 3] = 0.25 μM, [MUG] 3 mM
[11] = [Inhibitor 3] = 0.5 μM, [MUG] 0.375 mM
[12] = [Inhibitor 3] = 0.5 μM, [MUG] 0.75 mM
[13] = [Inhibitor 3] = 0.5 μM, [MUG] 1.5 mM
[14] = [Inhibitor 3] = 0.5 μM, [MUG] 3 mM
[15] = [Inhibitor 3] = 1 μM, [MUG] 0.375 mM
[16] = [Inhibitor 3] = 1 μM, [MUG] 0.75 mM
[17] = [Inhibitor 3] = 1 μM, [MUG] 1.5 mM
[18] = [Inhibitor 3] = 1 μM, [MUG] 3 mM
[19] = [Inhibitor 3] = 2 μM, [MUG] 0.375 mM
[20] = [Inhibitor 3] = 2 μM, [MUG] 0.75 mM
[21] = [Inhibitor 3] = 2 μM, [MUG] 1.5 mM
[22] = [Inhibitor 3] = 2 μM, [MUG] 3 mM
[23] = [Inhibitor 3] = 0.5 μM, [MUG] 0.0375 mM
[24] = [Inhibitor 3] = 0.5 μM, [MUG] 0.075 mM
[25] = [Inhibitor 3] = 0.5 μM, [MUG] 0.15 mM
[26] = [Inhibitor 3] = 0.5 μM, [MUG] 0.3 mM
[27] = [Inhibitor 3] = 1 μM, [MUG] 0.0375 mM
[28] = [Inhibitor 3] = 1 μM, [MUG] 0.075 mM
[29] = [Inhibitor 3] = 1 μM, [MUG] 0.15 mM
[30] = [Inhibitor 3] = 1 μM, [MUG] 0.3 mM
[31] = [Inhibitor 3] = 2 μM, [MUG] 0.0375 mM
[32] = [Inhibitor 3] = 2 μM, [MUG] 0.075 mM
[33] = [Inhibitor 3] = 2 μM, [MUG] 0.15 mM
[34] = [Inhibitor 3] = 2 μM, [MUG] 0.3 mM
[35] = [Inhibitor 3] = 4 μM, [MUG] 0.0375 mM
[36] = [Inhibitor 3] = 4 μM, [MUG] 0.075 mM
[37] = [Inhibitor 3] = 4 μM, [MUG] 0.15 mM
[38] = [Inhibitor 3] = 4 μM, [MUG] 0.3 mM
[39] = phosphate buffer (250 mM NaCl, 20 mM KH2PO4, 100 mM Na2HPO4, pH 8.0), 298 K

Compound: CCCCCC[C@@H]1NC[C@@H](O)[C@H](O)[C@H]1C(=O)O [Inhibitor 3, C6-hexyl UIFG]
- Ki ([1]; BdGUS, 50 mM HEPES pH 7.5, 37 °C): 0.86 ± 0.2 µM
- 1/v [1, 7]: 0.8098 and 0.8436 and 0.8112
- GUS activity (hydrolysis rate of MUG) [1, 7]: 0.2757 and 0.2647 and 0.2753
- 1/v [1, 8]: 0.4851 and 0.501 and 0.4979
- GUS activity (hydrolysis rate of MUG) [1, 8]: 0.4603 and 0.4457 and 0.4485
- 1/v [1, 9]: 0.3326 and 0.3553 and 0.3441
- GUS activity (hydrolysis rate of MUG) [1, 9]: 0.6714 and 0.6286 and 0.649
- 1/v [1, 10]: 0.2934 and 0.2936 and 0.2832
- GUS activity (hydrolysis rate of MUG) [1, 10]: 0.761 and 0.7606 and 0.7885
- 1/v [1, 11]: 1.013 and 1.039 and 0.9379
- GUS activity (hydrolysis rate of MUG) [1, 11]: 0.2203 and 0.2148 and 0.2381
- 1/v [1, 12]: 0.5713 and 0.5847 and 0.5765
- GUS activity (hydrolysis rate of MUG) [1, 12]: 0.3909 and 0.3819 and 0.3873
- 1/v [1, 13]: 0.386 and 0.3868 and 0.3898
- GUS activity (hydrolysis rate of MUG) [1, 13]: 0.5784 and 0.5773 and 0.5728
- 1/v [1, 14]: 0.2997 and 0.3073 and 0.3039
- GUS activity (hydrolysis rate of MUG) [1, 14]: 0.7451 and 0.7267 and 0.7347
- 1/v [1, 15]: 1.333 and 1.373 and 1.236
- GUS activity (hydrolysis rate of MUG) [1, 15]: 0.1676 and 0.1627 and 0.1806
- 1/v [1, 16]: 0.7658 and 0.7424 and 0.7331
- GUS activity (hydrolysis rate of MUG) [1, 16]: 0.2916 and 0.3008 and 0.3046
- 1/v [1, 17]: 0.4723 and 0.4867 and 0.4608
- GUS activity (hydrolysis rate of MUG) [1, 17]: 0.4727 and 0.4588 and 0.4846
- 1/v [1, 18]: 0.3528 and 0.337 and 0.3348
- GUS activity (hydrolysis rate of MUG) [1, 18]: 0.6328 and 0.6626 and 0.667
- 1/v [1, 19]: 1.957 and 1.888 and 1.908
- GUS activity (hydrolysis rate of MUG) [1, 19]: 0.1141 and 0.1183 and 0.117
- 1/v [1, 20]: 1.031 and 0.9985 and 1.0212
- GUS activity (hydrolysis rate of MUG) [1, 20]: 0.2167 and 0.2236 and 0.2187
- 1/v [1, 21]: 0.6082 and 0.615 and 0.6155
- GUS activity (hydrolysis rate of MUG) [1, 21]: 0.3672 and 0.3631 and 0.3628
- 1/v [1, 22]: 0.4308 and 0.4219 and 0.4288
- GUS activity (hydrolysis rate of MUG) [1, 22]: 0.5183 and 0.5293 and 0.5208
- ΔH [2]: Essentially no enthalpy change was evident
- Ki ([3]; LgGUS, 50 mM sodium acetate pH 4.5, 37 °C): 0.86 ± 0.18 µM
- 1/v [3, 23]: 0.401 and 0.3673 and 0.39
- GUS activity (hydrolysis rate of MUG) [3, 23]: 3104.19 and 3385.21 and 3190.6
- 1/v [3, 24]: 0.256 and 0.2525 and 0.2536
- GUS activity (hydrolysis rate of MUG) [3, 24]: 4839.61 and 4906.13 and 4884.95
- 1/v [3, 25]: 0.1953 and 0.1691 and 0.1949
- GUS activity (hydrolysis rate of MUG) [3, 25]: 6330.06 and 7304.48 and 6344.76
- 1/v [3, 26]: 0.1452 and 0.1349 and 0.1522
- GUS activity (hydrolysis rate of MUG) [3, 26]: 8498.3 and 9149.25 and 8113.44
- 1/v [3, 27]: 0.5803 and 0.4953 and 0.5757
- GUS activity (hydrolysis rate of MUG) [3, 27]: 2157.49 and 2520.77 and 2174.43
- 1/v [3, 28]: 0.3424 and 0.3184 and 0.351
- GUS activity (hydrolysis rate of MUG) [3, 28]: 3628.61 and 3898.42 and 3540.08
- 1/v [3, 29]: 0.2292 and 0.221 and 0.234
- GUS activity (hydrolysis rate of MUG) [3, 29]: 5401.09 and 5599.95 and 5290.95
- 1/v [3, 30]: 0.17 and 0.1709 and 0.1804
- GUS activity (hydrolysis rate of MUG) [3, 30]: 7266.77 and 7229.36 and 6851.15
- 1/v [3, 31]: 0.7678 and 0.7232 and 0.846
- GUS activity (hydrolysis rate of MUG) [3, 31]: 1640.4 and 1739.08 and 1492.59
- 1/v [3, 32]: 0.3881 and 0.4343 and 0.4681
- GUS activity (hydrolysis rate of MUG) [3, 32]: 3205.84 and 2869.39 and 2664.86
- 1/v [3, 33]: 0.2765 and 0.2621 and 0.3029
- GUS activity (hydrolysis rate of MUG) [3, 33]: 4483.64 and 4728.12 and 4096.06
- 1/v [3, 34]: 0.1941 and 0.1876 and 0.2109
- GUS activity (hydrolysis rate of MUG) [3, 34]: 6369.22 and 6587.98 and 5864.23
- 1/v [3, 35]: 1.38 and 1.418 and 1.362
- GUS activity (hydrolysis rate of MUG) [3, 35]: 930.888 and 906.847 and 942.511
- 1/v [3, 36]: 0.7054 and 0.7651 and 0.7316
- GUS activity (hydrolysis rate of MUG) [3, 36]: 1782.13 and 1646.05 and 1719.56
- 1/v [3, 37]: 0.4164 and 0.4204 and 0.422
- GUS activity (hydrolysis rate of MUG) [3, 37]: 2991.08 and 2963 and 2951.69
- 1/v [3, 38]: 0.2731 and 0.2793 (2×)
- GUS activity (hydrolysis rate of MUG) [3, 38]: 4539.61 and 4438.44 and 4439.48
- ΔH ([4]; Tris buffer (250 mM NaCl, 20 mM Tris, pH 8.0), 298 K): Essentially no enthalpy change was evident; also recorded: close to zero
- ΔΔH relative to 2 (ΔΔH2–3, ΔΔH2–4) ([4]; phosphate buffer): +0.04 kcal mol^−1
- –TΔΔS relative to 2 (–TΔΔS2–3, –TΔΔS2–4) ([4]; phosphate buffer): –1.32 kcal mol^−1
- Kd [4, 39]: 0.03 ± 0.01 µM
- ΔG [4, 39]: –10.24 ± 0.18 kcal/mol
- ΔH [4, 39]: –3.95 ± 0.06 kcal/mol
- —TΔS [4, 39]: –6.29 ± 0.13 kcal/mol
- IC50 [5]: 0.0186 µM
- Ki ([6]; 50 mM HEPES pH 7.5, 37 °C): 0.003 ± 0.0006 µM
- Ki ([6]; source data of Table 1, from plot of apparent Km against [inhibitor] (μM)): 0.00316 µM
